Data reported in PubChem BioAssay AID1645848.
≈ marks a conversion by molar mass, not a printed value.

Settings: buffer; pH 7.4; 6.0 h; 150.0 µM

| Structure (SMILES) | solubility kinetic |
| --- | --- |
| O=[S+]([O-])(Nc1ccccc1)c1ccc(NCc2cccc(Cl)c2F)cc1 | < 1 µg/mL |
| O=S(=O)(Nc1nccs1)c1ccc(NCc2cccc(Cl)c2O)cc1 | 46.1 µg/mL (≈ 117 µM) |
| COc1ccc(-c2nc(NC(C)c3ccccc3)c3ccccc3n2)cc1 (stereo not given) | < 1 µg/mL |
| Cc1cc(N)c2cc(NC(=O)Nc3ccc4nc(C)cc(N)c4c3)ccc2n1.Cl.Cl | < 1 µg/mL |
| CC1(C)CNc2cc(NC(=O)c3cccnc3NCc3ccncc3)ccc21 | 41.8 µg/mL (≈ 112 µM) |
| C[C@H]1CN(C(=O)c2nn(C)c3ccccc23)C[C@@H]1c1nc(-c2cccnc2)no1 | 19.7 µg/mL (≈ 50.6 µM) |
| CCOc1ccc(-c2csc(N3CCC(C(N)=O)CC3)n2)cc1 | 11 µg/mL (≈ 33.2 µM) |
| CC1=C(C(=O)Nc2nnc(-c3ccccc3)s2)C(c2[nH]ncc2Cl)N=C(Nc2nc3ccccc3o2)N1 (stereo not given) | < 1 µg/mL |
| COCc1cc(C)nc(SCC(=O)c2ccc(O)c(O)c2)c1C#N | 13.2 µg/mL (≈ 38.2 µM) |
| COc1ccc(-c2cnc(N3CCC(C(N)=O)CC3)s2)cc1OC | 18.8 µg/mL (≈ 54 µM) |
| O=S(=O)(c1ccccc1)N1CCN(c2nc(-c3ccc(Br)cc3)cs2)CC1 | 1.23 µg/mL (≈ 2.66 µM) |
| COc1cccc(CNc2ccc(S(=O)(=O)Nc3ncccn3)cc2)c1O | > 57 µg/mL |
| Cc1ccc(N2CCC(CNc3nc(-c4ccccc4C(C)C)ncc3C)CC2)cn1 | 19.8 µg/mL (≈ 47.7 µM) |
| CC1=C(C(=O)Nc2nncs2)C2(CCCC2)N=C(Nc2nc3ccccc3o2)N1 | < 1 µg/mL |
| CCCCNc1oc(-c2cccc3ccccc23)nc1C#N | < 1 µg/mL |
| O=C1CCCC2=C1C(c1ccccc1Br)N=C(Nc1nc3ccccc3o1)N2 (stereo not given) | < 1 µg/mL |
| COc1cc(NC(=O)Cn2c(=O)oc3cc(S(=O)(=O)N4CCCCCC4)ccc32)cc(OC)c1 | < 1 µg/mL |
| COc1cc2c(Oc3ccc(-c4cnc(Nc5ccc(F)cc5)n(C)c4=O)cc3F)ccnc2cc1OCCCN1CCOCC1 | < 1 µg/mL |
| Fc1ccc(CNc2cc3c(cn2)CN(Cc2ccncc2)CCN3)cc1 | 36.6 µg/mL (≈ 101 µM) |
| COc1ccc2c3c([nH]c2c1)C1CC2C(CC(O)C(OC)C2CO)CN1CC3 (stereo not given) | > 57 µg/mL |
| O=C(Nc1ccccc1)C1CCN(c2nc(-c3ccc(Br)cc3)cs2)CC1 | 5.11 µg/mL (≈ 11.5 µM) |
| Cc1cc(C)nc(NC(=S)N2CCN(c3cccc(C(F)(F)F)c3)CC2)c1 | 0.748 µg/mL (≈ 1.9 µM) |
| C[C@]1(CO)CN(c2cc(C(=O)Nc3ccc4c(c3)-c3c(c(C(N)=O)nn3-c3ccc(F)cc3)CC4)c(Cl)cn2)C[C@@]1(C)CO | 18.5 µg/mL (≈ 29.8 µM) |
| COc1cccc(CNc2ccc(S(=O)(=O)Nc3cc(C)on3)cc2)c1O | > 58 µg/mL |
| Cc1ccnc(NC(=S)N2CCN(c3ccc(Cl)cc3Cl)CC2)c1 | 2.28 µg/mL (≈ 5.97 µM) |

The next lines start with the values.

| solubility kinetic | Structure (SMILES) |
| --- | --- |
| < 1 µg/mL | CC(C)c1ccc(OCc2nc3c(n2Cc2ccccc2)C(=O)N(CC2CCOCC2)CCN3)cc1 |
| 24.5 µg/mL (≈ 97.5 µM) | Oc1ccc(CNc2cccnc2)c2cccnc12 |
| 55.6 µg/mL (≈ 124 µM) | Cc1nn(Cc2ccccc2Cl)c(C)c1CN(C)CC(O)COc1ccc(Cl)cc1 (stereo not given) |
| < 1 µg/mL | O=C(Nc1nnc(C2CCCCC2)s1)c1ccc(Br)s1 |
| < 1 µg/mL | FC(F)(F)c1ccccc1-c1nc(NCc2ccc(-c3cccnc3)cc2)c2ccccc2n1 |
| 22 µg/mL (≈ 63 µM) | O=C(Cc1cccs1)NCc1nnc2ccc(-c3ccccc3)nn12 |
| 43.2 µg/mL (≈ 112 µM) | NCC(=O)Nc1cccc(-c2nn3c(=O)cc(N4CCNCC4)nc3s2)c1 |
| 6.96 µg/mL (≈ 15.1 µM) | N#Cc1ccc(S(=O)(=O)Nc2cnccc2C(=O)Nc2nc(-c3ccccc3)cs2)cc1 |
| < 1 µg/mL | CCOC(=O)N1CCc2c(sc(NCc3sccc3C)c2C(=O)Nc2cc(Cl)ccc2OC)C1 |
| 6.93 µg/mL (≈ 17.1 µM) | O=C(O)c1ccnc2cc(-c3nc4ccccc4n3CCN3CCCCC3)sc12 |
| < 1 µg/mL | N#Cc1cc(-c2nc(Nc3ccc(F)c(F)c3)c3ccccc3n2)ccn1 |
| < 1 µg/mL | Cc1ccccc1C(=O)N1CCc2cc(-c3nc(NC(=O)Cc4ccc5ccccc5c4)sc3C)ccc21 |
| 8.07 µg/mL (≈ 21.2 µM) | Cc1ccnc(NC(=S)N2CCN(c3ccccc3C(F)(F)F)CC2)c1 |
| 1.62 µg/mL (≈ 4.42 µM) | NC(=O)C1CCN(c2ncc(-c3ccc(Br)cc3)s2)CC1 |
| < 1 µg/mL | c1ccc(CNc2nc(NCc3ccccc3)c3ccccc3n2)cc1 |
